Values joined by “and” are separate entries in the source; they are usually repeats but may differ in a detail not shown here. Equal entries are not always repeated. Active and inactive are the calls of the source. No rule for the calls is given here.
System: rodent lifetime carcinogenesis bioassay, tumor incidence TD50
Assay: chronic cancer bioassays in animals – CPDB, compiled studies (AID 1745844)

Oc1ccccc1O
TD50 (mouse, strain B6C3F1, females, in feed, site: forestomach, lesion: papilloma, dosed 96 weeks, study length 96 weeks): 17300 mg/kg/day
TD50 (mouse, strain B6C3F1, females, in feed, site: liver, lesion: hyperplastic nodule, dosed 96 weeks, study length 96 weeks): 17300 mg/kg/day
TD50 (mouse, strain B6C3F1, females, in feed, site: stomach, glandular, lesion: adenoma, dosed 96 weeks, study length 96 weeks): 471 mg/kg/day
TD50 (mouse, strain B6C3F1, males, in feed, site: all sites, lesion: lymphoma and leukemia, combined, dosed 96 weeks, study length 96 weeks): 2460 mg/kg/day
TD50 (mouse, strain B6C3F1, males, in feed, site: forestomach, lesion: papilloma, dosed 96 weeks, study length 96 weeks): 16500 mg/kg/day
TD50 (mouse, strain B6C3F1, males, in feed, site: lung, lesion: adenoma, dosed 96 weeks, study length 96 weeks): 16500 mg/kg/day
TD50 (mouse, strain B6C3F1, males, in feed, site: stomach, glandular, lesion: adenoma, dosed 96 weeks, study length 96 weeks): 165 mg/kg/day
TD50 (rat, strain Crj:Wistar, males, in feed, site: forestomach, lesion: squamous-cell carcinoma, dosed 104 weeks, study length 104 weeks): 6470 mg/kg/day
TD50 (rat, strain Crj:Wistar, males, in feed, site: forestomach, lesion: squamous-cell papilloma, dosed 104 weeks, study length 104 weeks): 3180 mg/kg/day
TD50 (rat, strain Crj:Wistar, males, in feed, site: liver, lesion: hepatocellular carcinoma, dosed 104 weeks, study length 104 weeks): 6470 mg/kg/day
TD50 (rat, strain Crj:Wistar, males, in feed, site: liver, lesion: hyperplastic nodule, dosed 104 weeks, study length 104 weeks): 3180 mg/kg/day
TD50 (rat, strain Crj:Wistar, males, in feed, site: stomach, glandular, lesion: adenocarcinoma, dosed 104 weeks, study length 104 weeks): 200 mg/kg/day
TD50 (rat, strain Crj:Wistar, males, in feed, site: stomach, glandular, lesion: adenoma, dosed 104 weeks, study length 104 weeks): 64.5 mg/kg/day
TD50 (rat, strain Crj:Wistar, males, in feed, site: stomach, glandular, lesion: sarcoma, dosed 104 weeks, study length 104 weeks): 2080 mg/kg/day
TD50 (rat, strain F344/DuCrj, females, in feed, site: stomach, glandular, lesion: adenocarcinoma, dosed 104 weeks, study length 104 weeks): 490 mg/kg/day
TD50 (rat, strain F344/DuCrj, males, in feed, site: forestomach, lesion: carcinoma, in situ, dosed 51 weeks, study length 52 weeks): 833 mg/kg/day
TD50 (rat, strain F344/DuCrj, males, in feed, site: forestomach, lesion: papilloma, dosed 51 weeks, study length 52 weeks): 833 mg/kg/day
TD50 (rat, strain F344/DuCrj, males, in feed, site: forestomach, lesion: papilloma, dosed 104 weeks, study length 104 weeks): 2960 mg/kg/day
TD50 (rat, strain F344/DuCrj, males, in feed, site: forestomach, lesion: squamous-cell papilloma, dosed 51 weeks, study length 52 weeks): 833 mg/kg/day
TD50 (rat, strain F344/DuCrj, males, in feed, site: forestomach, lesion: squamous-cell papilloma, dosed 104 weeks, study length 104 weeks): 3300 mg/kg/day
TD50 (rat, strain F344/DuCrj, males, in feed, site: pancreas, lesion: acinar-cell adenoma, dosed 104 weeks, study length 104 weeks): 1180 mg/kg/day
TD50 (rat, strain F344/DuCrj, males, in feed, site: stomach, glandular, pyloric region, lesion: adenocarcinoma, dosed 104 weeks, study length 104 weeks): 3320 mg/kg/day
TD50 (rat, strain F344/DuCrj, males, in feed, site: stomach, glandular, pyloric region, lesion: adenoma, dosed 104 weeks, study length 104 weeks): 43.5 mg/kg/day
TD50 (rat, strain F344/DuCrj, males, in feed, site: stomach, glandular, pyloric region, lesion: sarcoma, dosed 104 weeks, study length 104 weeks): 1940 mg/kg/day
TD50 (rat, strain F344/DuCrj, males, in feed, site: stomach, glandular, lesion: adenocarcinoma, dosed 48 weeks, study length 96 weeks): 387 mg/kg/day
TD50 (rat, strain F344/DuCrj, males, in feed, site: stomach, glandular, lesion: adenocarcinoma, dosed 51 weeks, study length 51 weeks): 130 mg/kg/day
TD50 (rat, strain F344/DuCrj, males, in feed, site: stomach, glandular, lesion: adenocarcinoma, dosed 72 weeks, study length 72 weeks): 206 mg/kg/day
TD50 (rat, strain F344/DuCrj, males, in feed, site: stomach, glandular, lesion: adenocarcinoma, dosed 72 weeks, study length 96 weeks): 202 mg/kg/day
TD50 (rat, strain F344/DuCrj, males, in feed, site: stomach, glandular, lesion: adenocarcinoma, dosed 96 weeks, study length 96 weeks): 141 mg/kg/day
TD50 (rat, strain F344/DuCrj, males, in feed, site: stomach, glandular, lesion: adenocarcinoma, dosed 104 weeks, study length 104 weeks): 286 mg/kg/day
carcinogen call (rat, strain F344/DuCrj, males, in feed, site: stomach, glandular, lesion: adenoma, dosed 48 weeks, study length 96 weeks): positive
carcinogen call (rat, strain F344/DuCrj, males, in feed, site: stomach, glandular, lesion: adenoma, dosed 51 weeks, study length 51 weeks): positive
carcinogen call (rat, strain F344/DuCrj, males, in feed, site: stomach, glandular, lesion: adenoma, dosed 51 weeks, study length 52 weeks): positive
carcinogen call (rat, strain F344/DuCrj, males, in feed, site: stomach, glandular, lesion: adenoma, dosed 72 weeks, study length 72 weeks): positive
carcinogen call (rat, strain F344/DuCrj, males, in feed, site: stomach, glandular, lesion: adenoma, dosed 72 weeks, study length 96 weeks): positive
carcinogen call (rat, strain F344/DuCrj, males, in feed, site: stomach, glandular, lesion: adenoma, dosed 96 weeks, study length 96 weeks): positive
carcinogen call (rat, strain F344/DuCrj, males, in feed, site: stomach, glandular, lesion: several types, types named in the paper, dosed 51 weeks, study length 52 weeks): positive
TD50 (rat, strain Fischer 344, males, in drinking water, site: prostate, lesion: carcinoma, in situ, dosed 78 weeks, study length 78 weeks): 236 mg/kg/day (inactive)
carcinogen call (rat, strain Fischer 344, males, in drinking water, site: urinary bladder, lesion: one or several types, types not named, dosed 78 weeks, study length 78 weeks): negative (inactive)
TD50 (rat, strain LEW/Crj (Lewis), males, in feed, site: stomach, glandular, lesion: adenocarcinoma, dosed 104 weeks, study length 104 weeks): 166 mg/kg/day
TD50 (rat, strain LEW/Crj (Lewis), males, in feed, site: stomach, glandular, lesion: adenoma, dosed 104 weeks, study length 104 weeks): 64.5 mg/kg/day
TD50 (rat, strain LEW/Crj (Lewis), males, in feed, site: stomach, glandular, lesion: sarcoma, dosed 104 weeks, study length 104 weeks): 2080 mg/kg/day
TD50 (rat, strain SD(Crj:CD) Sprague-Dawley, males, in feed, site: forestomach, lesion: squamous-cell carcinoma, dosed 104 weeks, study length 104 weeks): 6470 mg/kg/day
TD50 (rat, strain SD(Crj:CD) Sprague-Dawley, males, in feed, site: forestomach, lesion: squamous-cell papilloma, dosed 104 weeks, study length 104 weeks): 983 mg/kg/day
TD50 (rat, strain SD(Crj:CD) Sprague-Dawley, males, in feed, site: stomach, glandular, lesion: adenocarcinoma, dosed 104 weeks, study length 104 weeks): 151 mg/kg/day
carcinogen call (rat, strain SD(Crj:CD) Sprague-Dawley, males, in feed, site: stomach, glandular, lesion: adenoma, dosed 104 weeks, study length 104 weeks): positive
TD50 (rat, strain WKY/NCrj (Wistar), males, in feed, site: forestomach, lesion: squamous-cell papilloma, dosed 104 weeks, study length 104 weeks): 6470 mg/kg/day
TD50 (rat, strain WKY/NCrj (Wistar), males, in feed, site: liver, lesion: several types, types named in the paper, dosed 104 weeks, study length 104 weeks): 12400 mg/kg/day
TD50 (rat, strain WKY/NCrj (Wistar), males, in feed, site: stomach, glandular, lesion: adenocarcinoma, dosed 104 weeks, study length 104 weeks): 2080 mg/kg/day
carcinogen call (rat, strain WKY/NCrj (Wistar), males, in feed, site: stomach, glandular, lesion: adenoma, dosed 104 weeks, study length 104 weeks): positive

[K+]
TD50 (rat, strain F344/DuCrj, females, in drinking water, site: submandibular salivary gland, lesion: squamous-cell carcinoma, dosed 104 weeks, study length 104 weeks): 560 mg/kg/day
TD50 (rat, strain F344/DuCrj, females, in drinking water, site: uterus, lesion: endometrial stromal polyp, dosed 104 weeks, study length 104 weeks): 204 mg/kg/day (inactive)
TD50 (rat, strain F344/DuCrj, males, in drinking water, site: submandibular salivary gland, lesion: squamous-cell carcinoma, dosed 104 weeks, study length 104 weeks): 363 mg/kg/day

C[C@]12CC[C@H]3C(=CCc4cc(OS(=O)(=O)O)ccc43)[C@@H]1CCC2=O
carcinogen call (rat, strain Charles River CD (Sprague-Dawley), females, in feed, site: liver, lesion: one or several types, types not named, dosed 104 weeks, study length 104 weeks): negative (inactive)
carcinogen call (rat, strain Charles River CD (Sprague-Dawley), males, in feed, site: liver, lesion: hepatoma, dosed 104 weeks, study length 104 weeks): negative (inactive)

ClC(Cl)(Cl)C(Cl)(Cl)Cl
TD50 (mouse, strain B6C3F1, females, by gavage, site: any site (literature study), lesion: several types, types named in the paper, dosed 78 weeks, study length 90 weeks): 1190 mg/kg/day
TD50 (mouse, strain B6C3F1, females, by gavage, site: liver, lesion: hepatocellular adenoma + hepatocellular carcinoma + neoplastic nodule, dosed 78 weeks, study length 90 weeks): 873 mg/kg/day
TD50 (mouse, strain B6C3F1, females, by gavage, site: liver, lesion: hepatocellular carcinoma, dosed 78 weeks, study length 90 weeks): 873 mg/kg/day and 319 mg/kg/day
TD50 (mouse, strain B6C3F1, females, by gavage, site: lung, lesion: alveolar/bronchiolar adenoma + alveolar/bronchiolar carcinoma, dosed 78 weeks, study length 90 weeks): 6950 mg/kg/day
TD50 (mouse, strain B6C3F1, males, by gavage, site: any site (literature study), lesion: several types, types named in the paper, dosed 78 weeks, study length 90 weeks): 675 mg/kg/day
TD50 (mouse, strain B6C3F1, males, by gavage, site: liver, lesion: hepatocellular adenoma + hepatocellular carcinoma + neoplastic nodule, dosed 78 weeks, study length 90 weeks): 585 mg/kg/day
TD50 (mouse, strain B6C3F1, males, by gavage, site: liver, lesion: hepatocellular carcinoma, dosed 78 weeks, study length 90 weeks): 585 mg/kg/day and 359 mg/kg/day
TD50 (mouse, strain B6C3F1, males, by gavage, site: lung, lesion: alveolar/bronchiolar adenoma + alveolar/bronchiolar carcinoma, dosed 78 weeks, study length 90 weeks): 23600 mg/kg/day
carcinogen call (rat, strain Fischer 344, females, by gavage, site: any site (literature study), lesion: several types, types named in the paper, dosed 103 weeks, study length 105 weeks): negative (inactive)
TD50 (rat, strain Fischer 344, females, by gavage, site: liver, lesion: hepatocellular adenoma + hepatocellular carcinoma + neoplastic nodule, dosed 103 weeks, study length 105 weeks): 276000 mg/kg/day
TD50 (rat, strain Fischer 344, males, by gavage, site: adrenal gland + adrenal medulla, lesion: pheochromocytoma, benign + pheochromocytoma benign, bilateral + pheochromocytoma, complex + pheochromocytoma, malignant, dosed 103 weeks, study length 105 weeks): 8.02 mg/kg/day
TD50 (rat, strain Fischer 344, males, by gavage, site: adrenal gland + adrenal medulla, lesion: pheochromocytoma, benign + pheochromocytoma benign, bilateral, dosed 103 weeks, study length 105 weeks): 9.05 mg/kg/day
TD50 (rat, strain Fischer 344, males, by gavage, site: any site (literature study), lesion: several types, types named in the paper, dosed 103 weeks, study length 105 weeks): 28 mg/kg/day
TD50 (rat, strain Fischer 344, males, by gavage, site: kidney, lesion: adenoma + tubule adenoma + tubule carcinoma, dosed 103 weeks, study length 105 weeks): 55.4 mg/kg/day
TD50 (rat, strain Fischer 344, males, by gavage, site: kidney, lesion: tubule carcinoma, dosed 103 weeks, study length 105 weeks): 159 mg/kg/day
TD50 (rat, strain Fischer 344, males, by gavage, site: liver, lesion: hepatocellular adenoma + hepatocellular carcinoma + neoplastic nodule, dosed 103 weeks, study length 105 weeks): 1340 mg/kg/day
carcinogen call (rat, strain Osborne-Mendel, females, by gavage, site: any site (literature study), lesion: several types, types named in the paper, dosed 78 weeks, study length 111 weeks): negative (inactive)
carcinogen call (rat, strain Osborne-Mendel, males, by gavage, site: any site (literature study), lesion: several types, types named in the paper, dosed 78 weeks, study length 111 weeks): negative (inactive)

COC1=CC(=O)C[C@@H](C)[C@]12Oc1c(Cl)c(OC)cc(OC)c1C2=O
carcinogen call (hamster, strain Syrian Golden, females, in feed, site: liver, lesion: cholangiocarcinoma, dosed 97 weeks, study length 101 weeks): negative (inactive)
carcinogen call (hamster, strain Syrian Golden, males, in feed, site: liver, lesion: one or several types, types not named, dosed 123 weeks, study length 127 weeks): negative (inactive)
TD50 (mouse, strain Swiss albino, females, by gavage, site: mammary gland, lesion: infiltrating duct carcinoma, dosed 52 weeks, study length 52 weeks): 13.8 mg/kg/day
carcinogen call (mouse, strain Swiss, females, in feed, site: liver, lesion: hemangioma, dosed 115 weeks, study length 115 weeks): negative (inactive)
carcinogen call (mouse, strain Swiss, females, in feed, site: lung, lesion: one or several types, types not named, dosed 115 weeks, study length 115 weeks): negative (inactive)
carcinogen call (mouse, strain Swiss, males, in feed, site: liver, lesion: hemangioma, dosed 115 weeks, study length 115 weeks): negative (inactive)
TD50 (mouse, strain Swiss, males, in feed, site: liver, lesion: hepatoma, dosed 115 weeks, study length 115 weeks): 1660 mg/kg/day
carcinogen call (mouse, strain Swiss, males, in feed, site: lung, lesion: one or several types, types not named, dosed 115 weeks, study length 115 weeks): negative (inactive)

From PubChem BioAssay AID1745844 (Carcinogenic Potency Database (CPDB), 2022)
